Reference: ChEMBL document CHEMBL1146023, “Similar structure-activity relationships of quinoline derivatives for antiprion and antimalarial effects” (J Med Chem, 2006)
Active and inactive are the calls of the source. The rule behind the calls is not given here.

Experiments:
Plasmodium falciparum [1] = assay: Antimalarial activity against chloroquine-resistant Plasmodium falciparum FcB1 at 100 nM; type: functional
ScN2a [2] = assay: Selectivity index, toxicity against ScN2a cell line/EC50 for scrapie prion formation in mouse ScN2a cell line; type: functional
ScN2a [3] = assay: Toxicity against ScN2a cell line; type: cell-based; details: mouse
ScN2a [4] = assay: Inhibition of scrapie prion formation in mouse ScN2a cell line; type: functional
ScN2a [5] = assay: Inhibition of scrapie prion formation in mouse ScN2a cell line relative to control; type: functional, cell-based
ScN2a [6] = assay: Inhibition of scrapie prion formation in mouse ScN2a cell line at 200 nM; type: functional, cell-based
Plasmodium falciparum [7] = assay: microbe, parasite or virus in culture; details: FcB1
ScN2a [8] = assay: Toxicity against ScN2a cell line at 10 uM; type: cell-based; details: mouse
[9] = Toxicity against MRC5 cell line; type: cell-based; details: human, MRC5 cells
MRC5 = assay: Selectivity index, toxicity against MRC5 cell line/EC50 for scrapie prion formation in mouse ScN2a cell line; type: functional

SMILES | inhibition at 0.1 µM (Plasmodium falciparum [1]) | Selectivity index (ScN2a [2]) | Activity (ScN2a [3]) | Activity (ScN2a [4]) | EC50 (ScN2a [5]) | Activity (ScN2a [6]) | IC50 (Plasmodium falciparum [7]) | Activity (ScN2a [8]) | CC50 [9] | Selectivity index (MRC5)
O=C(NCCCN1CCN(CCCNc2ccnc3cc(Cl)ccc23)CC1)C1c2ccccc2Oc2ccccc21 | 11% | 7.5 | 750 nM | 300 nM | 100 nM | – | – | – | – | –
CC(C)(C)c1ccc(C(=O)NCCCN2CCN(CCCNc3ccnc4cc(Cl)ccc34)CC2)cc1 | – | 10 | 1000 nM | 200 nM | 100 nM | Active | 54.8 nM | – | – | –
O=C(NCCCN1CCN(CCCNc2ccnc3cc(Cl)ccc23)CC1)c1ccncc1 | 1% | – | – | 5000 nM | 3000 nM | – | – | Non-toxic | – | –
O=C(NCCCN1CCN(CCCNc2ccnc3cc(Cl)ccc23)CC1)c1cccc(Oc2ccccc2)c1 | – | 3.75 | 750 nM | 300 nM | 200 nM | – | – | – | 5 µM | 25
O=S(=O)(NCCCN1CCN(CCCNc2ccnc3cc(Cl)ccc23)CC1)c1ccc(Cl)cc1 | 26% | 8 | 2000 nM | 500 nM | 250 nM | – | – | – | – | –
COc1ccc(C(=O)NCCCN2CCN(CCCNc3ccnc4cc(Cl)ccc34)CC2)cc1 | – | 30 | 3000 nM | 300 nM | 100 nM | – | – | – | 4 µM | 40
CCN(CC)CCCC(C)Nc1ccnc2cc(Cl)ccc12 (stereo unspecified) [CHLOROQUINE] | – | – | – | 10000 nM | 4000 nM | – | – | Non-toxic | 50 µM | –
O=C(c1ccc2ccccc2c1)N(CCCN1CCN(CCCNc2ccnc3cc(Cl)ccc23)CC1)CC1CC1 | 23% | 26.67 | 2000 nM | 300 nM | 75 nM | – | – | – | – | –
